{"source": "patent US20260102407A1", "about": "“TREATMENT METHODS” (priority 2020, published 2026)", "key": {"[1]": {"system": "Balb/c mice", "assay": "Collagen antibody-induced arthritis (footpad thickness, H&E, micro-CT, TRAP)", "type": "in vivo, mouse", "conditions": "CAIA mice", "method": "Collagen antibody-induced arthritis. Arthritis was induced in female Balb/c mice (6-8 week-old) as previously described with a commercially obtained cocktail of 5 monoclonal antibodies to type II collagen at 2 mg/mouse (Chondrex, Inc. Redmond, WA) followed by LPS (50 μg/mouse) with or without BT2 (3 or 30 mg/kg mouse) in DMSO vehicle was administered i.p. on Day 3. Hind footpad thickness was measured on Day 9 using digital calipers. Mice were sacrificed on Day 14 and microCT scanning of hind limbs was performed.\nMicro-CT scanning and analysis. Formalin-ethanol fixed hind limbs were micro-CT scanned prior to histology processing using a Siemens Inveon micro-CT scanner (Victoria, Australia). Data was acquired with the Inveon Acquisition Workplace at 16.84 μm pixel size, 360 projections, 4100 ms integration time, 80 keV photon energy and 140 μA current. 3D models were visualized and snap shots of the limbs acquired with the Inveon Research Workplace software. Data was quantified by binary score where 0=no bone destruction and 1=destruction was given to each individual limb.\nTartrate-resistant acid phosphatase (TRAP) staining. Osteoclasts were stained using TRAP kit (Cosmo Bio, Japan, cat. PMC-AK04F-COS). Sections were heated at 65° C. for 1 h prior dewaxing. Tissue sections were deparaffinised with 100% xylene and rehydrated with 100, 70 and 30% ethanol and rinsed with distilled water for 5 min. Sections were covered with TRAP staining solution containing 3 mg tartaric acid per 50 ml tartaric acid buffer. The sections were incubated at 37° C. for 1 h, then rinsed in distilled water 3 times to halt the reaction. Sections were counterstained with hematoxylin for 5s then washed in running water until clear then dried. Sections were dehydrated with xylene and air-dried then mounted with aqueous permanent mounting medium. Within the synovium on the medial aspect of each animal joint, 6 random areas photographed under 20× objective were selected in the blinded fashion. Numbers of osteoclasts were counted using NIH Image J. Alternatively TRAP staining was quantitated using IOD (Image-Pro Plus)."}, "[2]": {"system": "FosB", "assay": "Immunohistochemical staining of rat retina, FosB", "type": "in vivo", "conditions": "lasered rat retinas", "excerpt": "Rat choroidal laser injury model. Male Brown Norway pigmented rats (8-14 week-old) were anesthetized by an intramuscular injection of Rompun® (xylazine)/Imalgene® (ketamine). Pupils were dilated by instillation of one drop of 0.5% tropicamide before laser burn. Six burns were created in both eyes on Day 0 by applying 170 mW of 532 nm laser light (Viridis laser, Quantel, France) on 75 μm spots around the optic nerve, between the main retinal vessel branches, for 0.1s, through the slit lamp and contact lens. Production of a bubble at the time of laser application confirmed the rupture of Bruch's membrane. […] After anaesthesia, 10% sodium fluorescein (250 μl/100 g body weight) was injected subcutaneously, and ocular fluorescence was recorded 10 min after dye injection. Fluorescein leakage was evaluated on Days 14 and 21 in the angiograms by two examiners masked to the study groups and graded for fluorescein intensity as follows: score 0: no leakage; 1: slightly stained; 2: moderately stained; 3: strongly stained.\nImmunohistochemical staining of rat retina. […] IOD of positive staining (red chromogen) was assessed for CD31, VEGF-A165, pERK, FosB and VCAM-1 using Image-Pro Plus software (Cybernetics, Bethesda, MD). IOD in IPL and INL was quantified for CD31; OPL to OS for VEGF-A165; INL to ONL for pERK; GCL to OS for FosB; OLM for VCAM-1, using Image-Pro Plus. […]"}, "[3]": {"assay": "Solubility in water", "type": "physicochemical"}}}
{"smiles": "CCOC(=O)Nc1ccc2c(c1)C(=O)N(CC)c1ccccc1O2", "note": "[BT2, (10-ethyl-11-oxo-10,11-dihydro-dibenzo[b,f][1,4]oxazepin-2-yl)-carbamic acid ethyl ester]", "values": [{"measurement": "TRAP staining in the joints", "setting": "[1]; Day 14", "value": "reduced TRAP staining"}, {"measurement": "bone destruction (3D micro-CT of hind limbs)", "setting": "[1]; Day 14", "value": "inhibits bone destruction"}, {"measurement": "inflammation (H&E staining)", "setting": "[1]; Day 14", "value": "reduced by BT2"}, {"measurement": "hind footpad thickness", "setting": "[1]; single administration 30 mg/kg i.p. Day 3, Day 9", "value": "inhibited"}, {"measurement": "retinal FosB immunostaining", "setting": "[2]", "value": "inhibited retinal FosB immunostaining"}, {"measurement": "solubility in water", "setting": "[3]", "value": "poorly soluble in water"}]}
